From patent US20210278408A1, “METHODS OF TREATMENT OF CANCER WITH SUBSTITUTED PYRROLE AND PYRAZOLE COMPOUNDS AND DIAGNOSIS OF CANCERS SUSCEPTIBLE TO TREATMENT WITH SUBSTITUTED PYRROLE AND PYRAZOLE COMPOUNDS” (Bantam Pharmaceutical, LLC, priority 2018, published 2021)
Where two headings read alike, the source gives them in different places.

Tests used:
NCI-H460 = experiment: Anti-proliferative activity, CellTiter-Glo, 72 hours: NCI-H460; type: cell-based, human; conditions: Homo sapiens, NCI-H460 (non-small cell lung cancer), Cell-Titre-Glo
Method: (§1) Anti-proliferative activity of BTM compounds. The anti-proliferative activities of Compound A197 and Compound B19 were compared to 4EGI-1 (a known cancer cell growth inhibitor) in a panel of 99 tumor lines. Methods: A panel of 96 tumor and 3 normal cell lines were tested for sensitivity to the test compound. The cell lines were cultured in standard media and pipetted into 96-well plates at the required plating densities. The cells were acclimated for 24 hours prior to compound testing. Compound was prepared as a stock of 20 mM in DMSO. To prepare dose response curves compound was serially diluted in DMSO and dispensed into the plate wells using a Tecan D300e digital dispenser. The final DMSO concentration was 0.15%. After 72 hours of incubation cell number was determined using the CellTiter-Glo® protocol according to the manufacturers instructions (Promega). In this assay, ATP is measured as a surrogate of cell number. The activity of the compound is determined by comparing untreated cells with treated cells and calculating the % of signal retained. Compound activity is measured as an EC50 of maximum level of efficacy and the two are used to compute an activity area. The table below provides a comparison of activity in a data sample.

SU-DHL-4 = experiment: Anti-proliferative activity, CellTiter-Glo, 72 hours: SU-DHL-4; type: cell-based, human; conditions: Homo sapiens, SU-DHL-4 (B-cell lymphoma), Cell-Titre-Glo
Method: as §1

SU-DHL-6 = experiment: Anti-proliferative activity, CellTiter-Glo, 72 hours: SU-DHL-6; type: cell-based, human; conditions: Homo sapiens, SU-DHL-6 (B-cell lymphoma), Cell-Titre-Glo
Method: as §1

A549 = experiment: Anti-proliferative activity, CellTiter-Glo, 72 hours: A549; type: cell-based, human; conditions: Homo sapiens, A549 (non-small cell lung cancer), Cell-Titre-Glo
Method: as §1

MDA-MB-231 = experiment: Anti-proliferative activity, CellTiter-Glo, 72 hours: MDA-MB-231; type: cell-based, human; conditions: Homo sapiens, MDA-MB-231 (breast cancer), Cell-Titre-Glo
Method: as §1

Jurkat = experiment: Anti-proliferative activity, CellTiter-Glo, 72 hours: Jurkat; type: cell-based, human; conditions: Homo sapiens, Jurkat (T cell leukemia), Cell-Titre-Glo
Method: as §1

NCI-H2122 = experiment: Anti-proliferative activity, CellTiter-Glo, 72 hours: NCI-H2122; type: cell-based, human; conditions: Homo sapiens, NCI-H2122 (non-small cell lung cancer), Cell-Titre-Glo
Method: as §1

MIA PaCa-2 = experiment: Anti-proliferative activity, CellTiter-Glo, 72 hours: MIA PaCa-2; type: cell-based, human; conditions: Homo sapiens, MIA PaCa-2 (pancreactic cancer (carcinoma)), Cell-Titre-Glo
Method: as §1

MDA-MB-157 = experiment: Anti-proliferative activity, CellTiter-Glo, 72 hours: MDA-MB-157; type: cell-based, human; conditions: Homo sapiens, MDA-MB-157, 72 h
Method: as §1

HUVEC = experiment: Anti-proliferative activity, CellTiter-Glo, 72 hours: HUVEC; type: cell-based, human; conditions: Homo sapiens, HUVEC (primary endolithial cells), Cell-Titre-Glo
Method: as §1

NHLF = experiment: Anti-proliferative activity, CellTiter-Glo, 72 hours: NHLF; type: cell-based; conditions: NHLF (human lung fibroblast), Cell-Titre-Glo
Method: as §1

SU-DHL-10 = experiment: Anti-proliferative activity, CellTiter-Glo, 72 hours: SU-DHL-10; type: cell-based, human; conditions: Homo sapiens, SU-DHL10, SU-DHL-10 (B-cell lymphoma), Cell-Titre-Glo
Method: as §1

[1] = system: panel of 96 tumor and 3 normal cell lines; experiment: Anti-proliferative activity in a panel of 99 cell lines, CellTiter-Glo, 72 hours; type: cell-based, human; conditions: for IC50: Homo sapiens, in responsive cell lines, read-out: activity range; for % of hematopoietic tumor lines being responsive / % of solid tumor lines being responsive: IC50<2 μM; for active in % of the tested cell lines (IC50<2 μM): all tested cell lines; for % of NSCLC tumor lines responsive / % of colorectal tumor lines responsive / % of sarcoma tumor lines responsive: among solid tumor lines; for activity in primary diploid cell lines: e.g. human umbilical vein endothelial cells and normal human lung fibroblasts (NHLF)
Method: as §1

HCT-116 = experiment: Anti-proliferative activity, CellTiter-Glo, 72 hours: HCT-116; type: cell-based, human; conditions: Homo sapiens, HCT-116 (colorectal cancer), Cell-Titre-Glo
Method: as §1

LoVo = experiment: Anti-proliferative activity, CellTiter-Glo, 72 hours: LoVo; type: cell-based, human; conditions: Homo sapiens, LoVo (colorectal cancer), Cell-Titre-Glo
Method: as §1

HK-2 = experiment: Anti-proliferative activity, CellTiter-Glo, 72 hours: HK-2; type: cell-based, human; conditions: Homo sapiens, HK-2 (kidney epilithial), Cell-Titre-Glo
Method: as §1

JHH-6 = experiment: Cell viability, CellTiter-Glo, 96 h: JHH-6; type: cell-based; conditions: for IC50: read-out: Absolute IC50
Method: (§2) Viability was determined by using the 50% inhibitory concentration (IC50) as determined with the CellTiter-Glo® Viability Assay (Promega). All cells were cultured under standard conditions in media supplemented with 10-15% Fetal Bovine Serum, at a temperature of 37° C., 5% CO2 and 95% humidity.
(§3) Cells were harvested during the logarithmic growth period, counted, and the cell concentration adjusted to 4.44×10^4 cells/mL using culture medium. A final cell density of 4×10^3 cells/well was added in a 90 μL cell suspension to plates A and B as shown.
(§4) Test plate B was incubated for 96 h in the humidified incubator at 37° C. with 5% CO2.
(§5) Following the incubation, the plate was equilibrated at room temperature for thirty minutes. CellTiter-Glo® (50 μL) was added to each well of the plate and contents mixed for five minutes on an orbital shaker to induce cell lysis. The luminescent signal was allowed to stabilize at room temperature for 20 minutes and the luminescence recorded.
(§6) IC50 (EC50) was calculated using a dose-response curve, fitted using a nonlinear regression model with a sigmoidal dose response. Survival rate was calculated using the formula:
(§7) The Surviving rate (%)=(LumTest article−LumMedium control)/(LumNon-treated−LumMedium control)×100%.
(§8) Absolute IC50 (EC50) was calculated according to the dose-response curve generated by the statistical software (GraphPad Prism 5.0).

LS 174T = experiment: Cell viability, CellTiter-Glo, 96 h: LS 174T; type: cell-based
Method: as §2, §3, §4, §5, §6, §7, §8

143B = experiment: Cell viability, CellTiter-Glo, 96 h: 143B; type: cell-based; conditions: for IC50: read-out: Absolute IC50
Method: as §2, §3, §4, §5, §6, §7, §8

D283 Med = experiment: Cell viability, CellTiter-Glo, 96 h: D283 Med; type: cell-based; conditions: for IC50: read-out: Absolute IC50
Method: as §2, §3, §4, §5, §6, §7, §8

8305C = experiment: Cell viability, CellTiter-Glo, 96 h: 8305C; type: cell-based; conditions: for IC50: read-out: Absolute IC50
Method: as §2, §3, §4, §5, §6, §7, §8

KU812 = experiment: Cell viability, CellTiter-Glo, 96 h: KU812; type: cell-based; conditions: for IC50: read-out: Absolute IC50
Method: as §2, §3, §4, §5, §6, §7, §8

HUH-6 CLONE5 = experiment: Cell viability, CellTiter-Glo, 96 h: HUH-6 CLONE5; type: cell-based; conditions: for IC50: read-out: Absolute IC50
Method: as §2, §3, §4, §5, §6, §7, §8

[2] = Cell No. 407, read-out: Absolute IC50

SMILES: COC(=O)c1c(-c2cccc(F)c2)c(C)nn1-c1nc(C2=CCC(C(F)(F)F)CC2)c(SC(C)C)s1 (single isomer, unassigned) [Compound B19, methyl 4-(3-fluorophenyl)-1-(5-(isopropylthio)-4-(4-(trifluoromethyl)cyclohex-1-en-1-yl)thiazol-2-yl)-3-methyl-1H-pyrazole-5-carboxylate]
- IC50 (NCI-H460): 167 nM
- IC50 (SU-DHL-4): 360 nM
- IC50 (SU-DHL-6): 538 nM
- IC50 (A549): 189 nM
- IC50 (MDA-MB-231): > 30000 nM
- IC50 (Jurkat): 166 nM
- IC50 (NCI-H2122): 184 nM
- IC50 (MIA PaCa-2): 447 nM
- IC50 (MDA-MB-157): > 30000 nM
- IC50 (HUVEC): > 30000 nM
- IC50 (NHLF): > 30000 nM
- IC50 (SU-DHL-10): 119 nM
- IC50 [1]: 100 to 2000 nM
- % of hematopoietic tumor lines being responsive [1]: 90%
- % of solid tumor lines being responsive [1]: 28%
- active in % of the tested cell lines (IC50<2 μM) [1]: 40%
- % of NSCLC tumor lines responsive [1]: 80%
- % of colorectal tumor lines responsive [1]: 37%
- % of sarcoma tumor lines responsive [1]: 40%
- activity in primary diploid cell lines [1]: tested negative
- IC50 (HCT-116): 343 nM
- IC50 (LoVo): 116 nM
- IC50 (HK-2): > 30000 nM

SMILES: N.N.[Cl][Pt][Cl] [Cisplatin, reference compound]
- % inhibition at top conc. (JHH-6): 95.32%
- IC50 (JHH-6): 3120 nM
- % inhibition at top conc. (LS 174T; Cell No. 406): 96.60%
- IC50 (LS 174T; Cell No. 406, read-out: Absolute IC50): 5890 nM
- % inhibition at top conc. (LS 174T; Cell No. 407): 96.74%
- IC50 (LS 174T; [2]): 8540 nM
- % inhibition at top conc. (143B): 99.94%
- IC50 (143B): 3200 nM
- % inhibition at top conc. (D283 Med): 99.39%
- IC50 (D283 Med): 700 nM
- % inhibition at top conc. (8305C): 99.17%
- IC50 (8305C): 6140 nM
- % inhibition at top conc. (KU812): 99.20%
- IC50 (KU812): 1950 nM
- % inhibition at top conc. (HUH-6 CLONE5): 99.43%
- IC50 (HUH-6 CLONE5): 6330 nM

SMILES: Cc1nn(-c2nc(-c3ccc(C(F)(F)F)cc3)c(SC(C)C)s2)c(C(=O)O)c1-c1cccc(F)c1 [Compound A197, 4-(3-fluorophenyl)-1-(5-(isopropylthio)-4-(4-(trifluoromethyl)phenyl)thiazol-2-yl)-3-methyl-1H-pyrazole-5-carboxylic acid]
- IC50 (NCI-H460): 156 nM
- IC50 (SU-DHL-4): 288 nM
- % inhibition at top conc. (JHH-6): 45.19%
- IC50 (JHH-6): > 30000 nM
- IC50 (SU-DHL-6): 521 nM
- % inhibition at top conc. (LS 174T; Cell No. 406): 15.79%
- % inhibition at top conc. (LS 174T; Cell No. 407): 27.00%
- IC50 (LS 174T; [2]): > 30000 nM
- IC50 (LS 174T; Homo sapiens, LS174T, Cell No. 406, read-out: Absolute IC50): > 30000 nM
- IC50 (A549): 312 nM
- % inhibition at top conc. (143B): 27.55%
- IC50 (143B; Homo sapiens): > 30000 nM
- IC50 (MDA-MB-231): > 30000 nM
- IC50 (Jurkat): 179 nM
- IC50 (NCI-H2122): 200 nM
- IC50 (MIA PaCa-2): 623 nM
- IC50 (MDA-MB-157): > 30000 nM
- % inhibition at top conc. (D283 Med): 66.67%
- IC50 (D283 Med; Homo sapiens): > 30000 nM
- IC50 (HUVEC): > 30000 nM
- IC50 (NHLF): > 30000 nM
- IC50 (SU-DHL-10): 136 nM
- IC50 [1]: 100 to 2000 nM
- % of hematopoietic tumor lines being responsive [1]: 90%
- % of solid tumor lines being responsive [1]: 28%
- active in % of the tested cell lines (IC50<2 μM) [1]: 40%
- % of NSCLC tumor lines responsive [1]: 80%
- % of colorectal tumor lines responsive [1]: 37%
- % of sarcoma tumor lines responsive [1]: 40%
- activity in primary diploid cell lines [1]: tested negative
- % inhibition at top conc. (8305C): 33.79%
- IC50 (8305C; Homo sapiens): > 30000 nM
- % inhibition at top conc. (KU812): 27.53%
- IC50 (KU812; Homo sapiens): > 30000 nM
- IC50 (HCT-116): 295 nM
- IC50 (LoVo): 123 nM
- IC50 (HK-2): > 30000 nM
- % inhibition at top conc. (HUH-6 CLONE5): 11.18%
- IC50 (HUH-6 CLONE5): > 30000 nM
